Here are results for 29 compounds from patent US7307077B2, “Heterocyclic compound and antitumor agent containing the same as effective ingredient” (Zenyaku Kogyo Kabushiki Kaisha, priority 2001, dated 2007).

The test system of series [1] is MCF-7 cells. Briefly: Test 1: growth inhibition of MCF-7 human breast cancer cells. The series is classed as cell-based. Conditions: read-out: GI50 (50% growth inhibition concentration). The method, then:
Used in the test were MCF-7 cells which were established from human breast cancer and were cultured routinely under the conditions of 37° C. and 5% CO2, in MEM medium supplemented with 10% fetal calf serum, 25 mM of HEPES and 0.1 mg/ml of kanamycin. The MCF-7 cells in a logarithmic growth phase were treated with trypsin/EDTA to prepare single cell suspension adjusted to 4.0×10^4 cells/ml in MEM medium (supplemented with 10% fetal calf serum, 25 mM of HEPES and 0.1 mg/ml of kanamycin). Test compounds were dissolved in DMSO and diluted with RPMI 1640 medium (supplemented with 10% fetal calf serum, 25 mM of HEPES and 0.1 mg/ml of kanamycin) to a concentration of 2.0×10^−4-2.0×10^−9 M.
The cell suspension was filled in a 96-wells microplate at a rate of 0.1 ml per well and was cultured for 24 hours so as to make the cells adhered to the microplate. Then, it was added with 0.1 ml of the sample solution and cultured at 37° C. for 72 hours in 5% CO2.
50% Growth inhibition concentrations (GI50 μM) were calculated from growth inhibitions at various sample concentrations.

The mark [2] stands for this setting: Homo sapiens, MCF7, 72 hours culture with sample.

Read-outs that look alike come from different tables or passages of the source. Some results are limits rather than exact numbers.

With `C[C@@H]1OCCN(c2cc(N3CCOCC3)nc(-n3c(N)nc4ccccc43)n2)[C@@H]1C` (relative stereo) [Example 2, 2-(2-aminobenzimidazol-1-yl)-4-(cis-2,3-dimethylmorpholino)-6-morpholinopyrimidine], the melting point – broadly, the temperature, or range, at which the solid turns liquid – was in the range of 129 to 133 °C. The compound `C[C@@H]1OCCN(c2cc(N3CCOCC3)nc(-n3c(C(F)F)nc4ccccc43)n2)[C@@H]1C` (relative stereo) [compound 1, 2-(2-difluoromethylbenzimidazol-1-yl)-4-(cis-2,3-dimethylmorpholino)-6-morpholinopyrimidine] registered a melting point of 167 to 169 °C. Further, in series [1] (setting [2]), the GI50 came to 110 nM. Turning to `C[C@@H]1OCCN(c2cc(N3CCOCC3)nc(-n3c(C(F)F)nc4ccccc43)n2)[C@H]1C` (relative stereo) [compound 4, 2-(2-difluoromethylbenzimidazol-1-yl)-4-(trans-2,3-dimethylmorpholino)-6-morpholinopyrimidine], in series [1] (setting [2]), the GI50 stood at 180 nM. `C[C@@H]1OCCN(c2cc(N3CCOCC3)nc(-n3c(CF)nc4ccccc43)n2)[C@@H]1C` (relative stereo) [compound 9, 4-(cis-2,3-dimethylmorpholino)-2-(2-fluoromethylbenzimidazol-1-yl)-6-morpholinopyrimidine] returned a melting point of 163 to 165 °C. In addition, the GI50 in series [1] (setting [2]) worked out at 200 nM.

Regarding `C[C@@H]1OCCN(c2cc(N3CCOCC3)nc(-n3c(CO)nc4ccccc43)n2)[C@@H]1C` (relative stereo) [compound 10, 4-(cis-2,3-dimethylmorpholino)-2-(2-hydroxymethylbenzimidazol-1-yl)-6-morpholinopyrimidine], the melting point lay in the range of 125 to 128 °C. Moreover, the GI50 in series [1] (setting [2]) stood at 130 nM. For `C[C@@H]1OCCN(c2cc(N3CCCCC3)nc(-n3c(CO)nc4ccccc43)n2)[C@@H]1C` (relative stereo) [compound 11, 4-(cis-2,3-dimethylmorpholino)-2-(2-hydroxymethylbenzimidazol-1-yl)-6-piperidinopyrimidine], the melting point was in the range of 141 to 143 °C. In series [1] (setting [2]), the GI50 turned out to be 200 nM. Taken in the same sequence, the figures for `C[C@@H]1OCCN(c2cc(N3CCCC3CO)nc(-n3c(CO)nc4ccccc43)n2)[C@@H]1C` (relative stereo) [compound 12, 4-(cis-2,3-dimethylmorpholino)-2-(2-hydroxymethylbenzimidazol-1-yl)-6-(2-hydroxymethylpyrrolidin-1-yl)pyrimidine] were 104 to 108 °C and 390 nM.

As to `C[C@@H]1OCCN(c2nc(N3CCOCC3)nc(-n3c(C(F)F)nc4ccccc43)n2)[C@@H]1C` (relative stereo) [compound 13, 2-(2-difluoromethylbenzimidazol-1-yl)-4-(cis-2,3-dimethylmorpholino)-6-morpholino-1,3,5-triazine], the melting point is 207 to 210 °C. `C[C@@H]1CO[C@@H](C)CN1c1nc(N2CCOCC2)nc(-n2c(C(F)F)nc3ccccc32)n1` (relative stereo) [compound 18, 2-(2-difluoromethylbenzimidazol-1-yl)-4-(trans-2,5-dimethylmorpholino)-6-morpholino-1,3,5-triazine]: the GI50 in series [1] (setting [2]) amounted to 180 nM. In turn, `CC(=O)Nc1nc2ccccc2n1-c1nc(N2CCOCC2)cc(N2CCO[C@@H](C)[C@@H]2C)n1` (relative stereo) [compound 23, 2-(2-acetylaminobenzimidazol-1-yl)-4-(trans-2,3-dimethylmorpholino)-6-morpholinopyrimidine] showed a melting point of 150 to 153 °C. In addition, the GI50 in series [1] (setting [2]) is 190 nM.

As for `CCC(=O)Nc1nc2ccccc2n1-c1nc(N2CCOCC2)nc(N2CCO[C@@H](C)[C@@H]2C)n1` (relative stereo) [compound 25, 2-(2-propionylaminobenzimidazol-1-yl)-4-(trans-2,3-dimethylmorpholino)-6-morpholino-1,3,5-triazine], the GI50 in series [1] (setting [2]) turned out to be 190 nM.

Turning to `C[C@@H]1OCCN(c2nc(N3CCOCC3)nc(-n3c(NC=O)nc4ccccc43)n2)[C@H]1C` (relative stereo) [compound 26, 2-(trans-2,3-dimethylmorpholino)-4-(2-formylaminobenzimidazol-1-yl)-6-morpholino-1,3,5-triazine], the GI50 in series [1] (setting [2]) was below 40 nM.

On to `C[C@@H]1OCCN(c2cc(N3CCOCC3)nc(-n3c(NC=O)nc4ccccc43)n2)[C@H]1C` (relative stereo) [compound 27, 4-(trans-2,3-dimethylmorpholino)-2-(2-formylaminobenzimidazol-1-yl)-6-morpholinopyrimidine], for which the melting point lay within 143 to 146 °C. For the same compound, the GI50 in series [1] (setting [2]) was found to be 160 nM. In turn, `C[C@@H]1OCCN(c2cc(N3CCOCC3)nc(-n3c(N)nc4ccccc43)n2)[C@@H]1C.Cl` (relative stereo) [compound 30, 2-(2-aminobenzimidazol-1-yl)-4-(cis-2,3-dimethylmorpholino)-6-morpholinopyrimidine hydrochloride] came in with a melting point of 151 to 155 °C. Also, in series [1] (setting [2]), the GI50 was determined as 250 nM. Take `C[C@@H]1OCCN(c2cc(N3CCOCC3)nc(-n3c(C(F)F)nc4ccc(N)cc43)n2)[C@@H]1C` (relative stereo) [compound 36, 2-(6-amino-2-difluoromethylbenzimidazol-1-yl)-4-(2,3-cis-dimethylmorpholino)-6-morpholinopyrimidine]: the melting point is 155 to 158 °C (dec.). In addition, the GI50 in series [1] (setting [2]) stood at 290 nM.

With `C[C@@H]1OCCN(c2nc(N3CCOCC3)nc(-n3c(C(F)F)nc4cc(O)ccc43)n2)[C@@H]1C` (relative stereo) [compound 37, 2-(2-difluoromethyl-5-hydroxybenzimidazol-1-yl)-4-(2,3-cis-dimethylmorpholino)-6-morpholino-1,3,5-triazine], the melting point is 170 to 175 °C (dec.). For the same compound, the GI50 in series [1] (setting [2]) stood at 90 nM. Regarding `C[C@@H]1OCCN(c2cc(N3CCOCC3)nc(-n3cnc4ccccc43)n2)[C@H]1C` (relative stereo) [compound A, 2-(benzimidazol-1-yl)-4-(trans-2,3-dimethylmorpholino)-6-morpholinopyrimidine], the GI50 in series [1] (setting [2]) came to 2200 nM.

Consider `FC(F)c1nc2ccccc2n1-c1nc(N2CCOCC2)cc(N2CCOCC2)n1` [compound 2, 2-(2-difluoromethylbenzimidazol-1-yl)-4,6-dimorpholinopyrimidine], for which the melting point lay within 201 to 202 °C. The GI50 in series [1] (setting [2]) amounted to 210 nM. The matching figures for `FC(F)c1nc2ccccc2n1-c1nc(N2CCOCC2)cc(N2CCSCC2)n1` [compound 3, 2-(2-difluoromethylbenzimidazol-1-yl)-4-morpholino-6-thiomorpholinopyrimidine]: 173 to 175 °C and 380 nM. Taken in the same sequence, the figures for `CC1(C)CN(c2cc(N3CCOCC3)nc(-n3c(C(F)F)nc4ccccc43)n2)CCO1` [compound 5, 2-(2-difluoromethylbenzimidazol-1-yl)-4-(2,2-dimethylmorpholino)-6-morpholinopyrimidine] were 149 to 152 °C and 220 nM.

As for `CC1CN(c2cc(N3CCOCC3)nc(-n3c(C(F)F)nc4ccccc43)n2)CCO1` (centres unmarked) [compound 6, 2-(2-difluoromethylbenzimidazol-1-yl)-4-(2-methylmorpholino)-6-morpholinopyrimidine], the GI50 in series [1] (setting [2]) was 290 nM. In the case of `C[C@H]1COC(C)(C)CN1c1cc(N2CCOCC2)nc(-n2c(C(F)F)nc3ccccc32)n1` [compound 8, 2-(2-difluoromethylbenzimidazol-1-yl)-4-morpholino-6-[2,2,5(S)-trimethylmorpholino]pyrimidine], the melting point is 113 to 116 °C. Further, in series [1] (setting [2]), the GI50 came to 320 nM.

Turning to `CC1(C)CN(c2nc(N3CCOCC3)nc(-n3c(C(F)F)nc4ccccc43)n2)CCO1` [compound 15, 2-(2-difluoromethylbenzimidazol-1-yl)-4-(2,2-dimethylmorpholino)-6-morpholino-1,3,5-triazine], the melting point fell in the range of 176 to 178 °C. Besides, the GI50 in series [1] (setting [2]) worked out at 130 nM. Consider `FC(F)c1nc2ccccc2n1-c1nc(N2CCOCC2)nc(N2CCSCC2)n1` [compound 16, 2-(2-difluoromethylbenzimidazol-1-yl)-4-morpholino-6-thiomorpholino-1,3,5-triazine], for which the GI50 in series [1] (setting [2]) is 350 nM. Turning to `[O-][S+]1CCN(c2nc(N3CCOCC3)nc(-n3c(C(F)F)nc4ccccc43)n2)CC1` [compound 21, 2-(2-difluoromethylbenzimidazol-1-yl)-4-morpholino-6-(tetrahydro-1,4-thiazin-1-oxo-4-yl)-1,3,5-triazine], the GI50 in series [1] (72 hours culture with sample) amounted to 340 nM.

The compound `C[C@@H]1CN(c2nc(N3CCOCC3)nc(-n3c(NC=O)nc4ccccc43)n2)C[C@H](C)O1` [compound 28, 2-(cis-2,6-dimethylmorpholino)-4-(2-formylaminobenzimidazol-1-yl)-6-morpholino-1,3,5-triazine] registered a melting point of 242 to 244 °C. Regarding `Cc1nc2ccccc2n1-c1nc(N2CCOCC2)nc(N2CCOCC2)n1` [compound B, 2-(2-methylbenzimidazol-1-yl)-4,6-dimorpholino-1,3,5-triazine, reference compound], the GI50 in series [1] (setting [2]) amounted to 3700 nM. Regarding `c1cn(-c2nc(N3CCOCC3)nc(N3CCOCC3)n2)cn1` [compound C, 2-(imidazol-1-yl)-4,6-dimorpholino-1,3,5-triazine, reference compound], the GI50 in series [1] (setting [2]) came out at 20000 nM.

With `CN(C)c1nc(N(C)C)nc(N(C)C)n1` [compound D, hexamethylmelamine, reference compound], the GI50 in series [1] (setting [2]) was above 100000 nM.
